Assay results: patent publication US11660309B2, “Prevention and treatment of inflammatory conditions” (GRI BIO, INC., priority 2011, dated 2023)
“Also recorded” adds a separate entry of the source.

Columns and labels:
type I NKT cells [1] = assay: In vitro αGalCer-stimulated proliferation of splenic type I NKT cells ([3H]-thymidine incorporation); type: cell-based, naïve B6 mice; details: for type I NKT cell proliferation at optimal concentration of RAR agonist: Example 15, αGalCer 10 ng/ml, comparison among ATRA, Tretinoin, AM580, AC55649, CD1530
Method: Retinoic acid receptors (RARs) comprise three major subtypes: RARα, RAR β, and RARγ. The RAR agonist ATRA is not selective for a specific subtype. The contribution of RAR subtypes to inhibition of type I NKT cell activity was tested with subtype-selective RAR agonists as follows. Splenic cells were isolated from naïve B6 (WT) mice and cultured in vitro in the presence of [^3H]-thymidine, an optimal concentration of αGalCer, and graded concentrations of the pan-RAR agonist ATRA, the RARα agonist AM580, the RAR β 2 agonist AC55649 or the RARγ agonist CD1530. Proliferation of the type I NKT cells in response to αGalCer stimulation was measured by [^3H]-thymidine incorporation. […]
In vitro proliferation and cytokine release assays were performed on freshly isolated splenocytes and type I NKT cell hybridomas (1.2 Hyb). The cells were cultured in the presence of [3H]-thymidine and an optimal concentration of αGalCer (10 ng/ml) with titrating concentrations of ATRA, Tretinoin, the RARα agonist AM580, the RAR β agonist AC55649 or the RARγ agonist CD1530. Proliferation of the type I NKT cells in response to αGalCer stimulation was quantified by [^3H]-thymidine incorporation. IL-2 levels were measured using IL-2 sandwich ELISA. Optimal concentrations of the RAR agonists was determined. […]

[2] = test system: Type I NKT hybridoma cells (Hy1.2); assay: IL-2 secretion by Hy1.2 cells pretreated with ATRA in the absence of antigen-presenting cells; type: cell-based; details: Hy1.2 pretreated 24 hr with 5, 10 or 20 μg/ml ATRA, washed, then APCs + graded αGalCer, 16 hour
Method: The effect of ATRA treatment on type I NKT cells in the absence of antigen-presenting cells was also measured. Type I NKT hybridoma cells (Hy1.2) were cultured in vitro either without ATRA or with 5 μg/ml, 10 μg/ml, or 20 μg/ml ATRA for 24 hr. The cells were then washed three times and co-cultured with irradiated splenocytes (APCs) in the presence of graded concentrations of the lipid antigen, αGalCer. Supernatants were collected 16 hour later and IL-2 levels were measured using IL-2 sandwich ELISA.

type I NKT cells [3] = assay: Ex vivo proliferation and cytokine response to αGalCer of type I NKT cells from RAR agonist injected mice; type: in vivo; details: for proliferative response of splenic type I NKT cells to αGalCer stimulation: Example 17, cells from mice injected i.p. 15 mg/kg daily for 5 days, vs vehicle (DMSO)
Method: Functional changes in type I NKT cells following ATRA administration were further tested. In two independent experiments, groups of Black 6 (WT) mice were injected intraperitoneally with 0.3 mg/animal (˜15 mg/Kg body weight) ATRA or vehicle (DMSO) daily for a period of 5 days. Type I NKT cells were purified and cultured in vitro with increasing concentrations of αGalCer. Cell proliferation was measured and supernatants were collected. The cytokine response of the isolated type I NKT after in vitro challenge with αGalCer was determined by sandwich ELISA for IFN-γ, IL-4, IL-6, IL-10, IL-12, and IL-13. […] No secretion of IFN-γ, IL-6, IL-10, IL-12, or IL-13 in response to αGalCer stimulation was detected from type I NKT cells isolated from ATRA injected mice.
(§1) Functional changes in type I NKT cells following in vivo administration of Tazarotene or ATRA was tested. Groups of mice were injected intraperitoneally with […] (15 mg/kg), 300 μg Tazarotene (15 mg/kg) or vehicle (DMSO) daily for a period of 5 days. Splenic Type I NKT cells were purified and cultured in vitro with increasing concentrations of αGalCer. Cell proliferation was measured by quantification of [^3H]-thymidine incorporation and the results are shown at FIG. 17.

[4] = test system: MBPAc1-9-reactive CD4+ T cells; assay: Proliferation of MBPAc1-9-reactive CD4+ T cells ([3H]-thymidine incorporation); type: cell-based, naïve B10.PL VB8.2 TCR transgenic mice; details: ATRA 0.15, 1.2, 18.8 μg/ml
Method: The effect of ATRA on class II MHC-restricted conventional CD4 T Cells was tested by isolating myelin basic protein MBPAc1-9-reactive CD4+ T cells from naïve B10.PL VB8.2 TCR transgenic mice and culturing the cells in vitro with [^3H]-thymidine and an optimal concentration of MBPAc1-9 in the presence or absence of graded concentrations of ATRA (0.15, 1.2, 18.8 μg/ml). Proliferation of the MBPAc1-9-reactive CD4+ T cells was measured by [^3H]-thymidine incorporation.

type I NKT cells (Hy1.2) = assay: IL-2 secretion by type I NKT cell hybridoma (Hy1.2) with APCs and αGalCer (IL-2 sandwich ELISA); type: cell-based
Method: The affect of ATRA on IL-2 cytokine secretion by a type I NKT cells in response to an in vitro challenge with αGalCer was tested by co-culturing NKT cells (Hy1.2) and irradiated antigen-presenting cells (APCs) in vitro with an optimal concentration of αGalCer in the presence or absence of ATRA (0.15 μg/ml, 1.2 μg/ml, or 18.8 μg/ml) for a period of 16 hours. Supernatants were collected and secreted IL-2 levels were measured using IL-2 sandwich ELISA.
In vitro proliferation and cytokine release assays were performed on freshly isolated splenocytes and type I NKT cell hybridomas (1.2 Hyb). The cells were cultured in the presence of [3H]-thymidine and an optimal concentration of αGalCer (10 ng/ml) with titrating concentrations of ATRA, Tretinoin, the RARα agonist AM580, the RAR β agonist AC55649 or the RARγ agonist CD1530. Proliferation of the type I NKT cells in response to αGalCer stimulation was quantified by [^3H]-thymidine incorporation. IL-2 levels were measured using IL-2 sandwich ELISA. Optimal concentrations of the RAR agonists was determined.
In vitro proliferation and cytokine release assays were performed on freshly isolated splenocytes and type I NKT cell hybridomas (1.2 Hyb). The cells were cultured in the presence of [^3H]-thymidine and an optimal concentration of αGalCer (10 ng/ml) with increasing concentrations of ATRA or Tazarotene. Proliferation of the type I NKT cells in response to αGalCer stimulation was quantified by [H]-thymidine incorporation. IL-2 levels were measured using IL-2 sandwich ELISA.

liver type I NKT cells = assay: Flow cytometry count of liver type I NKT cells (αGalCer/CD1d-tetramer/TCRβ) after in vivo administration; details: mice injected i.p. 15 mg/kg daily for 5 days
Method: as §1
Mononuclear cells were isolated from livers of mice injected with either ATRA, Tazarotene or vehicle (DMSO) and stained with αGalCer/CD1d-tetramer and a pan anti-TCRβ antibodies. Flowcytometry was performed and the population of αGalCer/CD1d-tetramer/TCRβ expressing cells (type I NKT cells) was quantified as shown in FIG. 18.

[5] = test system: alcohol-induced liver injury; assay: Alcohol-induced liver injury, chronic plus binge ethanol feeding: serum ALT and liver histology; type: in vivo, B6 (WT) male mice
Text: Following acclimatization with nutritionally adequate Lieber-DeCarli liquid diet for a week, 6-8 week old male C57BL/6J mice (B6) and Jα18−/− mice, which lack type I NKT cells but not type 2 NKT cells, were given free access to a liquid diet containing 5% ethanol or an isocaloric dextrin maltose-containing diet (Bio-Serv, NJ). Precautions were taken to prepare the diet fresh every day using autoclaved water in sterilized feeders, changing feed daily.
B6 and Jα18−/− mice receiving the ethanol-containing diet were separated into two groups, the chronic ethanol feeding group and the chronic plus binge ethanol feeding group. Mice in the chronic ethanol feeding group were fed liquid diet containing 5% ethanol for up to 4-5 weeks. Mice in the chronic plus binge ethanol feeding group were fed liquid diet containing 5% ethanol for 10 days followed by (on day 11) a single high dose of gavaged ethanol (5 g/kg body weight). Mice in the control group were gavaged with isocaloric dextrin maltose. Following gavage, mice were kept on a temperature controlled warm pad and monitored. Though initially slow moving, most mice receiving the high dose of gavaged ethanol regained normal behavior within hours. Mice were euthanized 8-9 hr after gavage. […]
Serum ALT levels were determined for each group of mice. […]

[6] = cells from mice injected i.p. with 0.3 mg/animal ATRA daily for 5 days
[7] = Example 16, 1.2 Hyb, αGalCer 10 ng/ml, increasing concentrations of ATRA or Tazarotene
[8] = Example 16, splenocytes, αGalCer 10 ng/ml, increasing concentrations of ATRA or Tazarotene

## CCCCCCCCc1ccc(-c2ccc(C(=O)O)cc2)cc1 [AC55649]
Type I NKT cells [1]; Example 12, 10^1 μg/ml
  type I NKT cell proliferation in response to αGalCer: low or minimal proliferation
Type I NKT cells [1]; Example 12, graded concentrations up to (below) 10^1 μg/ml
  type I NKT cell proliferation in response to αGalCer: Reduced cell proliferation

## CC1(C)CCC(C)(C)c2cc(C(=O)Nc3ccc(C(=O)O)cc3)ccc21 [AM580]
Type I NKT cells [1]; Example 12, 10^1 μg/ml
  type I NKT cell proliferation in response to αGalCer: proliferation was maintained

## CC1=C(/C=C/C(C)=C/C=C/C(C)=C/C(=O)O)C(C)(C)CCC1 [ATRA, all trans retinoic acid]
[2]
  IL-2 secretion: inhibits IL-2 secretion
Type I NKT cells [3]
  proliferative response of splenic type I NKT cells to αGalCer stimulation: inhibits type I NKT cell activity
Type I NKT cells [3]; cells from WT mice injected i.p. with 0.3 mg/animal ATRA daily for 5 days
  proliferation of type I NKT cells in response to αGalCer stimulation: did not proliferate
Type I NKT cells [3]; [6]
  IFN-γ secretion in response to αGalCer stimulation: No secretion
  IL-4 secretion in response to αGalCer stimulation: Reduced levels
  IL-6 secretion in response to αGalCer stimulation: No secretion
  IL-10 secretion in response to αGalCer stimulation: No secretion
  IL-12 secretion in response to αGalCer stimulation: No secretion
  IL-13 secretion in response to αGalCer stimulation: No secretion
[4]
  MBPAc1-9-stimulated proliferation of CD4+ T cells: No inhibition; also recorded: does not directly inhibit
Type I NKT cells (Hy1.2); 0.15 μg/ml ATRA, αGalCer, irradiated APCs, 16 hours
  IL-2 secretion: not significantly affected
Type I NKT cells (Hy1.2); 1.2 μg/ml ATRA, αGalCer, irradiated APCs, 16 hours
  IL-2 secretion: significant reductions
Type I NKT cells (Hy1.2); 18.8 μg/ml ATRA, αGalCer, irradiated APCs, 16 hours
  IL-2 secretion: greatest reduction
Type I NKT cells (Hy1.2); [7]
  IL-2 secretion: inhibit
Type I NKT cells [1]; 0.15 μg/ml ATRA + αGalCer
  αGalCer-induced type I NKT cell proliferation compared with αGalCer alone: similar
Type I NKT cells [1]; 1.2 μg/ml ATRA + αGalCer
  αGalCer-induced type I NKT cell proliferation compared with αGalCer alone: reduced
Type I NKT cells [1]; 18.8 μg/ml ATRA + αGalCer
  αGalCer-induced type I NKT cell proliferation compared with αGalCer alone: greatest inhibition
Type I NKT cells [1]; ATRA alone, no αGalCer
  type I NKT cell proliferation: No or minimal proliferation
Type I NKT cells [1]; Example 12, 10^1 μg/ml
  type I NKT cell proliferation in response to αGalCer: low or minimal proliferation
Type I NKT cells [1]; Example 14, 10^1 μg/ml
  type I NKT cell proliferation in response to αGalCer: no or minimal proliferation
Type I NKT cells [1]
  type I NKT cell proliferation at optimal concentration of RAR agonist: lowest levels of proliferation
Type I NKT cells [1]; [8]
  type I NKT cell proliferation: inhibit
Liver type I NKT cells
  numbers of type I NKT cells in the livers vs control: no significant difference
[5]
  protection from liver damage following excess alcohol consumption (summary of FIGS. 6 and 7): significantly inhibits liver damage
[5]; B6 mice, sulfatide or ATRA injected
  liver histology for hepatic steatohepatitis (fatty liver disease): little sign of fatty liver disease; also recorded: appears relatively normal

## O=C(O)c1ccc(-c2ccc3cc(O)c(C45CC6CC(CC(C6)C4)C5)cc3c2)cc1 [CD1530]
Type I NKT cells (Hy1.2); Example 15, 1.2 Hyb, αGalCer 10 ng/ml, comparison among RAR agonists
  IL-2 secretion at optimal concentration of RAR agonist: lowest levels of IL-2 secretion
Type I NKT cells [1]; Example 12, 10^1 μg/ml
  type I NKT cell proliferation in response to αGalCer: low or minimal proliferation
Type I NKT cells [1]
  type I NKT cell proliferation at optimal concentration of RAR agonist: lowest levels of proliferation

## Tazarotene
Type I NKT cells [3]
  proliferative response of splenic type I NKT cells to αGalCer stimulation: lowest levels of proliferation
Type I NKT cells (Hy1.2); [7]
  IL-2 secretion: achieves its inhibitory effects at lower concentrations
Type I NKT cells [1]; [8]
  type I NKT cell proliferation: achieves its inhibitory effects at lower concentrations; also recorded: better inhibition of type I NKT cells than ATRA
Liver type I NKT cells
  numbers of type I NKT cells in the livers vs control: no significant difference
